From patent EP1857556A1, “Genetically engineered Pseudomonas fluorescens strains as biosensor for trehalose detection and quantification in a sample” (INSTITUT NATIONAL DE LA RECHERCHE AGRONOMIQUE (INRA), priority 2006, dated 2007)

Tests used:
Pyt 6 [1] = test: semi-quantitative high-throughput X-Gal colorimetric trehalose assay with Pyt 6; format: cell-based, Pseudomonas fluorescens; conditions: semi-quantitative method; for visible induction: Pyt 6, sugars (2 %), X-Gal, 18 hours at 27°C
Protocol: For instance, the Inventors have developed a semi-quantitative method of assaying trehalose in a sample. Said method comprises the steps consisting of: • a) contacting the sample with a suspension of Pyt 6, precultured to exponential growth, at OD 600 nm = about 0.1, with a ratio about 1:20 (preferably 10 µl of the sample, optionally diluted, are contacted with 190 µl of the Pyt 6 suspension atOD600nm=0.1); • b) adding about 2 µl X-Gal (20 mg/ml); • c) incubation the mixture during 16-20 hours, preferably18 hours, at 27°C (preferably with agitation at 150 rpm), • c) observing and/or measuring the blue coloration elicited by X-Gal processing; and • d) comparing the blue coloration observed in step c) with that elicited by a standard of trehalose contacted with a suspension of Pyt 6, precultured to exponential growth, at OD 600 nm = about 0.1, with a ratio 1:10 (preferably 10 µl of the standards are contacted with 190 µl of the Pyt 6 suspension at OD 600 nm = 0.1) and X-Gal (2 µl, 20 mg/ml); whereby if the blue coloration observed in step c) is above that of observed with the standard, then the concentration of trehalose in the sample is above trehalose concentration in the standard.
From the knowledge derived from the use of the qualitative and quantitative methods, the inventors have developed a semi-quantitative method that allows a high throughput pre-screening of the presence of trehalose in liquid samples. The invention helps also to the check quickly the quality of controls without trehalose before applying the quantitative method. The semi-quantitative method combines a direct colorimetric observation with the use of the chromogenic X-Gal and the conditions of Pyt 6 culture derived from the quantitative method. The detection limit is 0.5 mM trehalose in 10 µl of the tested liquid sample (biological or other extracts).
This method was carried out according to the following steps : • preculture of Pyt 6 to exponential growth in the BCAA medium at 27°C, • distribution of 190 µl of this Pyt 6 suspension at OD 600 nm = 0.1 in wells of a 96 well microtiter plate , • incorporation of 2 µl X-Gal (20 mg/ml) in each well, • incorporation of 10 µl of a standard range of trehalose (0.1 mM to 2 mM trehalose) or 10 µl of tested samples or 10 µl of pure water or culture medium for the blank control, • incubation during 18 hours at 150 rpm at 27°C, • comparative observation of the intensity of the blue color in wells, • the lower detection limit is 0.5 mM trehalose in the tested sample.

Pyt 5 = test: visual assessment of β-galactosidase activity (blue color intensity) on X-gal buffered CAA medium, mutant Pyt 5; format: cell-based, P. fluorescens ATCC 17400; set-up: β-galactosidase activities: key: -: no induction; (+): faintish induction; +: weak induction; ++: highly induction; +++: extremely strong induction
From the text: (§1) So, Pyt 6 was chosen as a good candidate to develop the biosensor test in the further study.
(§2) Table 1. Influence of added sugars in buffered (pH 7) CAA medium for the β-galactosidase activities of P. fluorescens ATCC 17400 derived mutants on visual assessment of blue color intensity

Pyt 6 [2] = test: visual assessment of β-galactosidase activity (blue color intensity) on X-gal buffered CAA medium, mutant Pyt 6; for β-galactosidase activities: key: -: no induction; (+): faintish induction; +: weak induction; ++: highly induction; +++: extremely strong induction; format: cell-based, P. fluorescens ATCC 17400
From the text: as §1, §2

[3] = effect of boiling on trehalose, read out with Pyt 6 luminescence (Figure 8); format: physicochemical; conditions: boiling of the samples, 5 min at 100°C (Figure 8)
Protocol: The extract derived from 1 g of Ggt mycelium cultured for 7 days were tested. For the positive control, 10 ng of purified β-gal and 1 mM trehalose solution with Pyt 6 were assessed. Results shown are mean values from 3 repeated counting. Error bars indicate standard deviations.
The fungal extraction was performed as follows. Mycelium are pre-cultured (Gaeumannomyces. graminis (Ggt): 5 days on PDA (Potato Dextrose 39 g/L, agar 20 g/L); Laccaria bicolor. (Lb) 10 days on P5 (0.25 g Di NH4 tartrate, 0.5 g KH2PO4, 0.25 g MgSO4 7 H2O, 2.5 g maltose D+, 10 g glucose D+, 0.5 ml thiamine-HCl (100 mg/L), 0.5 ml Kanieltra oligoelement solution (100 ml/L), 10 g agar, 480 ml H2O, adjusted pH to 5.5 with HCl or NaOH). Growing mycelium plugs are explanted to BCAA agar (as defined above) with cellophane membrane or the glass bead/membrane system with liquid BCAA. The cellophane membranes were previously boiled in ultra-pure water + EDTA (372 mg.l-1) during 15 minutes, washed abundantly with ultra-pure water and sterilised by autoclaving twice. […]
Boiling of the fungal extracts is expected to denature endogenous β-gal and therefore avoid interference with trehalose measurement. […] Additionally, it was observed that when Ggt mycelium extract (diluted to 1/10) was boiled, no endogenous β-galactosidase activity was ever detected (Figure 8).

**Q.** For `O=C[C@@H](O)[C@H](O)[C@H](O)CO` [arabinose], which visible induction (Pyt 6 [1]) is on record?
**A.** The visible induction was “no visible induction”.

**Q.** For `O=C(CO)[C@@H](O)[C@H](O)[C@H](O)CO` [fructose], which visible induction (Pyt 6 [1]) is on record?
**A.** Its visible induction is “no visible induction”.

**Q.** With `O=C[C@H](O)[C@@H](O)[C@@H](O)[C@H](O)CO` [galactose] as the molecule, how does the visible induction (Pyt 6 [1]) read?
**A.** Its visible induction is “no visible induction”.

**Q.** For `OCC(O)CO` [glycerol], which visible induction (Pyt 6 [1]) is on record?
**A.** Its visible induction is “no visible induction”.

**Q.** For `OC[C@H]1O[C@H](O[C@H]2O[C@H](CO)[C@@H](O)[C@H](O)[C@H]2O)[C@H](O)[C@@H](O)[C@@H]1O` [trehalose, Trehalose], which β-galactosidase activities (Pyt 5; Pyt 5, 10 mM trehalose added to buffered (pH 7) CAA medium) is on record?
**A.** The β-galactosidase activities was “+++”.

**Q.** And the β-galactosidase activities (Pyt 5; Pyt 5, 10mM trehalose together with 0.2 % glucose)?
**A.** The β-galactosidase activities was “+++”.

**Q.** And the β-galactosidase activities (Pyt 5; Pyt 5, 10 mM trehalose together with 0.2 % maltose)?
**A.** Its β-galactosidase activities is “+++”.

**Q.** And the β-galactosidase activities (Pyt 5; Pyt 5, 10 mM trehalose together with 0.5% maltose)?
**A.** The β-galactosidase activities was “+++”.

**Q.** What about the β-galactosidase activities (Pyt 5; Pyt 5, 10 mM trehalose together with 2 % glucose) of the same molecule?
**A.** The β-galactosidase activities was “+++”.

**Q.** What about the treA expression (Pyt 5; strain as received under the label Pyt 5 (storage tubes inverted)) of the same molecule?
**A.** Its treA expression is “specifically induced”.

**Q.** And the β-galactosidase activities (Pyt 6 [2]; Pyt 6, 10 mM trehalose added to buffered (pH 7) CAA medium)?
**A.** The β-galactosidase activities was “+++”.

**Q.** And the β-galactosidase activities (Pyt 6 [2]; Pyt 6, 10mM trehalose together with 0.2 % glucose)?
**A.** The β-galactosidase activities was “+++”.

**Q.** And the β-galactosidase activities (Pyt 6 [2]; Pyt 6, 10 mM trehalose together with 0.2 % maltose)?
**A.** Its β-galactosidase activities is “+++”.

**Q.** What about the β-galactosidase activities (Pyt 6 [2]; Pyt 6, 10 mM trehalose together with 0.5% maltose) of the same molecule?
**A.** The β-galactosidase activities was “+++”.

**Q.** What about the β-galactosidase activities (Pyt 6 [2]; Pyt 6, 10 mM trehalose together with 2 % glucose) of the same molecule?
**A.** Its β-galactosidase activities is “+++”.

**Q.** What about the treA induction (Pyt 6 [2]; Pyt 6, trehalose 10^-3 M, visual assessment on X-gal medium) of the same molecule?
**A.** Its treA induction is “treA induction”.

**Q.** What about the detection limit (Pyt 6 [1]; trehalose in 10 µl of the tested liquid sample) of the same molecule?
**A.** The detection limit was 0.5 mM.

**Q.** What about the stability to boiling [3] of the same molecule?
**A.** Its stability to boiling is “not affected”.

**Q.** Which results are given for `OC[C@H]1O[C@H](O[C@H]2[C@H](O)[C@@H](O)C(O)O[C@@H]2CO)[C@H](O)[C@@H](O)[C@@H]1O` (mixture of isomers) [maltose]?
**A.** β-galactosidase activities (Pyt 5; Pyt 5, 0.2 % maltose added to buffered (pH 7) CAA medium): ++; β-galactosidase activities (Pyt 5; Pyt 5, 0.5% maltose added to buffered (pH 7) CAA medium): ++; treA induction (Pyt 5; Pyt 5, visual assessment on X-gal medium): weak induction; β-galactosidase activities (Pyt 6 [2]; Pyt 6, 0.2 % maltose added to buffered (pH 7) CAA medium): -; β-galactosidase activities (Pyt 6 [2]; Pyt 6, 0.5% maltose added to buffered (pH 7) CAA medium): -; treA expression (Pyt 6 [2]; strain as received under the label Pyt 6 (storage tubes inverted)): triggered; visible induction (Pyt 6 [1]): no visible induction
